Reference: the NIST ThermoML archive (doi:10.1016/j.fluid.2013.08.026)
Numbers after ± are expanded uncertainties.

Conditions: for surface tension liquid-gas: Maximal bubble pressure; for mass density: 101.33 kPa, Liquid, Buoyancy - hydrostatic balance

CCCCCCCn1cc[n+](C)c1.[Br-] [1-heptyl-3-methylimidazolium bromide]
Conditions	mass density [kg/m3]	surface tension liquid-gas [mN/m]
293.15 K	1249 ± 1.3	37.8 ± 0.5
298.15 K	1245.9 ± 1.3	37.5 ± 0.5
303.15 K	1242.3 ± 1.2	37.2 ± 0.5
308.15 K	1239.1 ± 1.2	36.8 ± 0.5
313.15 K	1236 ± 1.2	36.5 ± 0.5
318.15 K	1232.8 ± 1.2	36.1 ± 0.5
323.15 K	1229.7 ± 1.2	35.9 ± 0.5
328.15 K	1226.4 ± 1.2	35.6 ± 0.5
333.15 K	1222.8 ± 1.2	35.3 ± 0.5
338.15 K	1219.9 ± 1.2	35 ± 0.5
343.15 K	1216.6 ± 1.2	34.6 ± 0.5
